Measurements: patent publication US20220137060A1, “FULL LENGTH KINASE ACTIVITY-CONFORMATION REPORTER” (UNIVERSITAT INNSBRUCK, priority 2016, published 2022)
Entries after “also recorded” stand apart in the source; their conditions may differ.

Columns and labels:
Format in all cases: cell-based
[1] = target: T1, wild type BRAF (Homo sapiens, UniProt P15056); test: Intramolecular Rluc PCA reporter F[1]-BRAF-F[2] (wild type), transiently transfected HEK293 cells; design: Renilla luciferase PCA fragment F[1]; Renilla luciferase PCA fragment F[2]; expressed in transfected cells; host or cells: HEK293 (transient, pcDNA3.1); conditions: for Effect on reporter luminescence signal: HEK293, 1 μM, 3 h treatments (FIG. 5A, 6A)
Procedure: (§1) Cell culture and antibodies. HEK293 and SW480 cells were grown in DMEM supplemented with 10% (vol/vol) FBS. Cells were passaged three times a week to keep the cells in culture. Transient transfections were performed with Transfectin reagent (Bio-Rad, #1703350). […] The primary antibody used was anti-BRAF(F-7) (Santa Cruiz Biotechnology, #sc-5284).
(§2) Expression constructs. The Rluc PCA hybrid proteins F[1]-BRAF-F[2] and F[1]-BRAF(V600E)-F[2] have been generated using the identical cloning approach. Following PCR amplification of the human BRAF or BRAF(V600E) gene, the coding region of the BRAF protein (SEQ ID No: 2 or 5) was fused N-terminally with F[1] (SEQ ID No: 13) and C-terminally with F[2] (SEQ ID No: 17) of the Rluc PCA coding region. In addition. the sequence of two interjacent 10-aa linkers (GGGGS)2 (SEQ ID No: 18) was integrated by cloning. As vector backbone we used the pcDNA3.1 plasmid. The MEK1 expression constructs (s. SEQ ID No: 23) and the Gluc PCA based BRAF reporter (s. SEQ ID No: 24) were prepared analogously.
(§3) Renilla/Gaussia luciferase PCA experiments. Cells were grown in DMEM supplemented with 10% FBS. Indicated versions of the Rluc PCA based biosensor were transiently overexpressed in 24-well plate format. 48 hours post-transfection, the growth medium was partially removed and different compounds added with concentrations as indicated in the figure legends. To measure the dose-dependent effect of the lead molecules (candidate compounds) on the intramolecular Rluc PCA reporter, the attached cells were treated with different concentrations and for different time-frames. The time-dependent consequences of the lead compounds on kinase conformations were recorded with a final compound concentration of 1 μM. For the Rluc PCA measurements the growth medium was carefully removed and the cells were washed with PBS. Cells were resuspended in PBS and the cell suspensions were transferred to 96-well plates and subjected to luminescence analysis using the LMaxTM-II-384 luminometer (Molecular Devices). Rluc luminescence signals were integrated for 10 seconds with a delay time of 3 seconds following addition of 20 μl of the Rluc substrate benzyl-coelenterazine (5 μM; Nanolight, #301) in PBS with a concentration of 25 nM. Dose-dependent effects of drug exposure on luminescence signals originating from BRAF conformations were compared using indicated controls. Cells were collected after PCA measurements and lysed with Laemmli sample buffer to control the protein expression levels. In case of Gluc reporters, coelenterazine was used as luminescence substrate.
Target sequence in this assay (P15056 with tags, fused parts or gaps): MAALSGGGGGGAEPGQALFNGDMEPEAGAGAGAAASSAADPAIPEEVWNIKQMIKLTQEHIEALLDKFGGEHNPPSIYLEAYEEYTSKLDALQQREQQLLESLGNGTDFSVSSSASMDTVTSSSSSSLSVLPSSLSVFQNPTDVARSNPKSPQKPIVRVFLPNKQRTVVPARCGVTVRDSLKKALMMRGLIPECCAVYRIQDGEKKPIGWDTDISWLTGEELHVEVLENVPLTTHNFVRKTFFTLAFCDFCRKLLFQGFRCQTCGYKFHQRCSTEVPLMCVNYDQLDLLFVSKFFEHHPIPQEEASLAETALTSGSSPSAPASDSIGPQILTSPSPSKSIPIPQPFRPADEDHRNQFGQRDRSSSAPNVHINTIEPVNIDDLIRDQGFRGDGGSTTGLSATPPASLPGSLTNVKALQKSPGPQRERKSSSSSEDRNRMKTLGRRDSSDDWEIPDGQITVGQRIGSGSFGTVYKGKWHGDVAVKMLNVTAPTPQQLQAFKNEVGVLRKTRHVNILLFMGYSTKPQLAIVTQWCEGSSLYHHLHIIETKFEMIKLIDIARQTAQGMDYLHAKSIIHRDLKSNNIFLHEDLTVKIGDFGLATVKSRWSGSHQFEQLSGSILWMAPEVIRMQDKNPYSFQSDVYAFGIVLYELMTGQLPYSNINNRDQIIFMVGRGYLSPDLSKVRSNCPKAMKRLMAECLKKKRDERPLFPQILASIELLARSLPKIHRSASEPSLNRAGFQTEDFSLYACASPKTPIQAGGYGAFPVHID

[2] = target: T2, BRAF-V600E (Homo sapiens, UniProt P15056, V600E); test: Intramolecular Rluc PCA reporter F[1]-BRAF(V600E)-F[2], transiently transfected HEK293 cells; conditions: HEK293, 1 μM; for Effect on reporter bioluminescence signal / conformation: BRAF V600E reporter, 3 h treatments (FIG. 5B, 6B)
T2 construct: Renilla luciferase PCA fragment F[1]; Renilla luciferase PCA fragment F[2]; expressed in transfected cells; host or cells: HEK293 (transient, pcDNA3.1)
T2 sequence (P15056 with tags, fused parts or gaps V600E): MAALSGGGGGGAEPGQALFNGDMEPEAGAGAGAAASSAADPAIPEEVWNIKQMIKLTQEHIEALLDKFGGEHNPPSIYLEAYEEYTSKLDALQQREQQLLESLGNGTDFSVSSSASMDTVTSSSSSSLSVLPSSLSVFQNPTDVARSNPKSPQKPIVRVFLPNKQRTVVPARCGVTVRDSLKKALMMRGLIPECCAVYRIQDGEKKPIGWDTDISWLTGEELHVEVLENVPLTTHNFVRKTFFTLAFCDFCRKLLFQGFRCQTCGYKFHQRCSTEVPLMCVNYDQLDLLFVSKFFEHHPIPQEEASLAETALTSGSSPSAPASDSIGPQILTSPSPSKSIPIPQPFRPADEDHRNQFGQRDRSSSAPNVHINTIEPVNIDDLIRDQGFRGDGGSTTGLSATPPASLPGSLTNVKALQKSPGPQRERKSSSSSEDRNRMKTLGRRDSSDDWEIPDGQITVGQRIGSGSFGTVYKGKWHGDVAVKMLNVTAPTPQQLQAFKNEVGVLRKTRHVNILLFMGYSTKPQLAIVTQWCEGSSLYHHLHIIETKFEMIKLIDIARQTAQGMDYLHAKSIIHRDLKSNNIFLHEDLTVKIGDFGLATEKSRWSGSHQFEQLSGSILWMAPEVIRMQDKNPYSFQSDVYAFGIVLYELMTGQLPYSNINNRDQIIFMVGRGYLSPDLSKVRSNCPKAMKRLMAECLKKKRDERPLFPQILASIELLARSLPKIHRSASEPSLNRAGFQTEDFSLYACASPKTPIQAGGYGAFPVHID
Procedure: as §1, §2
Mutagenesis. Site directed mutagenesis have been performed to generate following mutations in the reporter constructs: V600E, V600K, V600R, D594G, and G469A in BRAF and S218A and the S218E/S222E double mutation in MEK1.
as §3

[3] = target: T2, BRAF-V600E; test: Intramolecular Gluc PCA reporter GlucF[1]-BRAF-V600E-GlucF[2], transiently transfected HEK293 cells; conditions: HEK293, 1 μM, 3 h treatments (FIG. 8)
Procedure: as §1
(§4) Expression constructs. The Rluc PCA hybrid proteins F[1]-BRAF-F[2] and F[1]-BRAF(V600E)-F[2] have been generated using the identical cloning approach. Following PCR amplification of the human BRAF or BRAF(V600E) gene, the coding region of the BRAF protein (SEQ ID No: 2 or 5) was fused N-terminally with F[1] (SEQ ID No: 13) and C-terminally with F[2] (SEQ ID No: 17) of the Rluc PCA coding region. […]
(§5) Renilla/Gaussia luciferase PCA experiments. […] The time-dependent consequences of the lead compounds on kinase conformations were recorded with a final compound concentration of 1 μM. […] Cells were resuspended in PBS and the cell suspensions were transferred to 96-well plates and subjected to luminescence analysis using the LMaxTM-II-384 luminometer (Molecular Devices). Rluc luminescence signals were integrated for 10 seconds with a delay time of 3 seconds following addition of 20 μl of the Rluc substrate benzyl-coelenterazine (5 μM; Nanolight, #301) in PBS with a concentration of 25 nM. […] In case of Gluc reporters, coelenterazine was used as luminescence substrate.

[4] = target: T1, wild type BRAF; test: Intramolecular Gluc PCA reporter GlucF[1]-BRAF-GlucF[2] (wild type), transiently transfected HEK293 cells; conditions: HEK293, 1 μM, 3 h treatments (FIG. 8)
Procedure: as §1, §4, §5
Target sequence in this assay (P15056 with tags, fused parts or gaps): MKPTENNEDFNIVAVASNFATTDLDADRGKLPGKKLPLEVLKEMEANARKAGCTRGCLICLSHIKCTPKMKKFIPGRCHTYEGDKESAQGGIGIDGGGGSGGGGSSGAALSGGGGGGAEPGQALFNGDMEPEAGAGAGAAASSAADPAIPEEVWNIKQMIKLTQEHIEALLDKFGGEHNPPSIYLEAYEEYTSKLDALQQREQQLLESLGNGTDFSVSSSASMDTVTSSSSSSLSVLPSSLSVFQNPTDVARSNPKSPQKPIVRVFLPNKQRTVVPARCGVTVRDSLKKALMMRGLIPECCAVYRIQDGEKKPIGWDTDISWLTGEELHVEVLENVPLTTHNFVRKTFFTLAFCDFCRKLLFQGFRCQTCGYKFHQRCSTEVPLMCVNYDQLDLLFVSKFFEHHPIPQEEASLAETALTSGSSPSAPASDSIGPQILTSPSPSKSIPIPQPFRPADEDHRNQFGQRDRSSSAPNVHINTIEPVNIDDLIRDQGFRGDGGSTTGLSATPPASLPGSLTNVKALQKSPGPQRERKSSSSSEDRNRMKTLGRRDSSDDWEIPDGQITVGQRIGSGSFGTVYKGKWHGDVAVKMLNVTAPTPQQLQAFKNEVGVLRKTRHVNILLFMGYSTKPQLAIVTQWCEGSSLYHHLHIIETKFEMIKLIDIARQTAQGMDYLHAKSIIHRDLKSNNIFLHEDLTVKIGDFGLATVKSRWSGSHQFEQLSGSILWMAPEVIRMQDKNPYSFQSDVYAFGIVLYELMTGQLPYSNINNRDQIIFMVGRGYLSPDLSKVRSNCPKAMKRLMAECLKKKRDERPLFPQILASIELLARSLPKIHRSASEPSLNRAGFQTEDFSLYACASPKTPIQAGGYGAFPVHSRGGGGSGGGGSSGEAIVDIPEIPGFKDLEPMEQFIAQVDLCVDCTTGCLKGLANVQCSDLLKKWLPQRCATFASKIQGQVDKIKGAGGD

[5] = target: BRAF D594G (Homo sapiens, UniProt P15056, D594G); test: Intramolecular Rluc PCA mutant BRAF reporter (D594G), transiently transfected HEK293 cells; conditions: HEK293, 1 μM, 3 h treatments (FIG. 5B)
Chain of BRAF D594G (P15056 with tags, fused parts or gaps D594G): as the sequence (P15056 with tags, fused parts or gaps V600E) above, with D594G, E600V counted along it
Procedure: as §1, §4, §5

[6] = target: BRAF V600R (Homo sapiens, UniProt P15056, V600R); test: Intramolecular Rluc PCA mutant BRAF reporter (V600R), transiently transfected HEK293 cells; conditions: HEK293, 1 μM, 3 h treatments (FIG. 5B)
Chain of BRAF V600R (P15056 with tags, fused parts or gaps V600R): as the sequence (P15056 with tags, fused parts or gaps V600E) above, with E600R counted along it
Procedure: as §1, §4, §5

[7] = target: BRAF V600K (Homo sapiens, UniProt P15056, V600K); test: Intramolecular Rluc PCA mutant BRAF reporter (V600K), transiently transfected HEK293 cells; conditions: HEK293, 1 μM, 3 h treatments (FIG. 5B)
Chain of BRAF V600K (P15056 with tags, fused parts or gaps V600K): as the sequence (P15056 with tags, fused parts or gaps V600E) above, with E600K counted along it
Procedure: as §1, §4, §5

[8] = target: BRAF G469A (Homo sapiens, UniProt P15056, G469A); test: Intramolecular Rluc PCA mutant BRAF reporter (G469A), transiently transfected HEK293 cells; conditions: HEK293, 1 μM, 3 h treatments (FIG. 5B)
Chain of BRAF G469A (P15056 with tags, fused parts or gaps G469A): as the sequence (P15056 with tags, fused parts or gaps V600E) above, with G469A, E600V counted along it
Procedure: as §1, §4, §5

Row | Structure (SMILES) | Effect on reporter luminescence signal [1] | Effect on reporter bioluminescence signal / conformation [2] | Effect on Gluc PCA luciferase signal / conformation [3] | Effect on Gluc PCA luciferase signal / conformation [4] | Effect on reporter bioluminescence signal / conformation [5] | Time-dependent effect on reporter conformation (Rluc PCA signal) ([1]; HEK293, 1 μM (FIG. 4)) | Time-dependent effect on reporter conformation (Rluc PCA signal) ([2]; BRAF-V600E reporter, up to 3 h (FIG. 4)) | Effect on reporter bioluminescence signal / conformation [6] | Effect on reporter bioluminescence signal / conformation [7] | Effect on reporter bioluminescence signal / conformation [8]
1 | COC(=O)N[C@@H](C)CNc1nccc(-c2cn(C(C)C)nc2-c2cc(Cl)cc(NS(C)(=O)=O)c2F)n1 [encorafenib] | only slight changes in the luminescence signal | shift to the closed conformation |  |  |  |  |  |  |  | 
2 | COc1cc(F)c(F)c(Nc2ccc(I)cc2F)c1NS(=O)(=O)C1(C[C@H](O)CO)CC1 [refametinib] | only slight changes in the luminescence signal | exclusively influenced by the BRAF specific inhibitors |  |  |  |  |  |  |  | 
3 | N#CC(=C(/N)Sc1ccccc1N)/C(C#N)=C(\N)Sc1ccccc1N [U0126] | only slight changes in the luminescence signal | exclusively influenced by the BRAF specific inhibitors |  |  |  |  |  |  |  | 
4 | CC(C)(C)c1nc(-c2cccc(NS(=O)(=O)c3c(F)cccc3F)c2F)c(-c2ccnc(N)n2)s1 [dabrafenib] | only slight changes in the luminescence signal | shift to the closed conformation |  |  |  |  |  |  |  | 
5 | O=C(c1c(F)ccc(NS(=O)(=O)N2CC[C@@H](F)C2)c1F)c1c[nH]c2ncc(-c3cnc(C4CC4)nc3)cc12 [PLX8394] | not susceptible; also recorded: only slight changes in the luminescence signal | significant shift to the closed conformation | enhanced the luciferase signal exclusively with the V600E BRAF mutant | not affected | significant shift to the closed conformation | not affected | immediate shift of the BRAF-V600E reporter to the closed conformation was observed increasing up to 3 h | significant shift to the closed conformation | significant shift to the closed conformation | significant shift to the closed conformation
